This assay has as its system human sperms. Put plainly: Survival rate of frozen and thawed sperms, 0.5% Eosin Y dying. It is filed as cell-based. As to conditions: freeze-preservative solution using D-allose, liquid nitrogen 1 month (FIG. 17). The protocol: Semens of ten healthy men who were 24 to 44 years old (mean: 29.9) with normal semens were used.
The semen was manually collected after abstinence for 3 to 5 days, liquefied at room temperature, and then washed and concentrated by a 80% Percoll liquid agitation density gradient method. The resulting sperm turbid solution (0.2 ml) and the freeze-preservative solution were mixed in equal amounts, and the mixture was charged into a freezing tube (serum tube, Sumitomo Bakelite), frozen by a liquid nitrogen vapor freezing method, and then preserved in a liquid nitrogen tank. The freeze-preservative solution (refer to FIG. 14) was used such that the mixing amounts of D-allose and D-glucose were changed (A group=1:0, B group=3:1, C group=1:1, D group=1:3, E group=0:1) without changing the number of moles of the sugar in a KS-II sperm preservative solution. One month later, the frozen sperms were thawed in warm water (30° C.) with shaking. Further, for removal of the freeze-preservative solution and reconcentration, the density gradient centrifugation method was conducted, and the resulting sperm floating solution was examined.
As the examination method, the sperm movement rate was measured by a visual observation method with Makler Counting Chamber and C-IMAGING SYSTEMS, and the survival rate was measured by 0.5% Eosin Y dying. […]

In the case of `O=C[C@H](O)[C@H](O)[C@H](O)[C@H](O)CO` [D-allose], the “survival rate of thawed sperms” value is on record as “did not show a clear effect”.

These data come from patent publication US9237744B2, “Preservative solution for cells, tissues and organs containing rare sugar and preservative method thereof” (NATIONAL UNIVERSITY CORPORATION KAGAWA UNIVERSITY, priority 2004, dated 2016).
